Results from US20190002988A1, “METHOD OF USING A RET FUSION GENE AS A BIOMARKER TO SELECT NON SMALL CELL LUNG CANCER (NSCLC) AND THYROID CANCER PATIENTS FOR A CANCER TREATMENT” (Boehringer Ingelheim International GmbH, priority 2015, published 2019).

Legend:
[1] = system: vascular endothelial growth factor receptors (VEGFRs); assay: preclinical studies, inhibition of VEGFRs; format: biochemical
[2] = system: platelet-derived growth factor receptors (PDGFRs); assay: preclinical studies, inhibition of PDGFRs; format: biochemical
[3] = system: fibroblast growth factor receptors (FGFRs); assay: preclinical studies, inhibition of FGFRs; format: biochemical
[4] = preclinical studies, oral bioavailability; format: in vivo
[5] = system: endothelial- and smooth muscle cells and pericytes; assay: signalling in endothelial- and smooth muscle cells and pericytes; format: cell-based
tumor vessel density = assay: tumor vessel density; conditions: in vivo
[6] = system: EGFR and ALK wild-type advanced NSCLC with CCDC6-RET fusion gene; assay: Phase I case study, docetaxel plus nintedanib in a patient with CCDC6-RET fusion NSCLC; format: in vivo, human; conditions: one patient
Excerpt: The present study is a case study of long-term efficacy of docetaxel plus nintedanib (BIBF 1120; 3-Z-[1-(4-(N-((4-methyl-piperazin-1-yl)-methylcarbonyl)-N-methyl-amino)-anilino)-1-phenyl-methylene]-6-methoxycarbonyl-2-indolinone) over 33 months in a never smoking person with EGFR and ALK wild-type non-small cell lung cancer NSCLC.
The present case was a never smoking person with EGFR and ALK wild-type advanced NSCLC. After failure of first-line platinum-based chemotherapy, the patient was enrolled in a phase I dose-escalation study of nintedanib combined with docetaxel for Japanese patients with advanced NSCLC on June, 2010, with oral administration of nintedanib 150 mg twice daily plus docetaxel 75 mg/m^2 every 3 weeks (Okamoto I, Kaneda H, Satoh T et al. Phase I safety, pharmacokinetic, and biomarker study of BIBF 1120, an oral triple tyrosine kinase inhibitor in patients with advanced solid tumors. Mol Cancer Ther 2010; 9: 2825-2833.). […] A total of 48 treatment cycles (26 cycles of therapy with nintedanib alone) had been administered over 33 months until disease progression on March, 2013 (FIG. 1). To identify mutations which are highly susceptible to therapy with nintedanib, next-generation sequencing panels were applied that cover both mutational hotspots in 22 genes related to lung and colon tumorigenesis using DNA (FIG. 4) as well as 72 major variants of ALK, RET, ROS1, and NTRK1 fusion transcripts using RNA extracted from non-small lung tissues obtained by transbronchial biopsy (FIG. 5). Multiplex genetic testing has identified CCDC6-RET fusion gene in tissue specimens for lung cancer diagnosis (FIG. 2), and no other actionable mutations were identified.

VEGFR2 = VEGFR2 (Homo sapiens, UniProt P35968); conditions: in vitro; Hilberg et al. 2008; cited from earlier work
Chain of VEGFR2 (P35968 20-1356, species assumed): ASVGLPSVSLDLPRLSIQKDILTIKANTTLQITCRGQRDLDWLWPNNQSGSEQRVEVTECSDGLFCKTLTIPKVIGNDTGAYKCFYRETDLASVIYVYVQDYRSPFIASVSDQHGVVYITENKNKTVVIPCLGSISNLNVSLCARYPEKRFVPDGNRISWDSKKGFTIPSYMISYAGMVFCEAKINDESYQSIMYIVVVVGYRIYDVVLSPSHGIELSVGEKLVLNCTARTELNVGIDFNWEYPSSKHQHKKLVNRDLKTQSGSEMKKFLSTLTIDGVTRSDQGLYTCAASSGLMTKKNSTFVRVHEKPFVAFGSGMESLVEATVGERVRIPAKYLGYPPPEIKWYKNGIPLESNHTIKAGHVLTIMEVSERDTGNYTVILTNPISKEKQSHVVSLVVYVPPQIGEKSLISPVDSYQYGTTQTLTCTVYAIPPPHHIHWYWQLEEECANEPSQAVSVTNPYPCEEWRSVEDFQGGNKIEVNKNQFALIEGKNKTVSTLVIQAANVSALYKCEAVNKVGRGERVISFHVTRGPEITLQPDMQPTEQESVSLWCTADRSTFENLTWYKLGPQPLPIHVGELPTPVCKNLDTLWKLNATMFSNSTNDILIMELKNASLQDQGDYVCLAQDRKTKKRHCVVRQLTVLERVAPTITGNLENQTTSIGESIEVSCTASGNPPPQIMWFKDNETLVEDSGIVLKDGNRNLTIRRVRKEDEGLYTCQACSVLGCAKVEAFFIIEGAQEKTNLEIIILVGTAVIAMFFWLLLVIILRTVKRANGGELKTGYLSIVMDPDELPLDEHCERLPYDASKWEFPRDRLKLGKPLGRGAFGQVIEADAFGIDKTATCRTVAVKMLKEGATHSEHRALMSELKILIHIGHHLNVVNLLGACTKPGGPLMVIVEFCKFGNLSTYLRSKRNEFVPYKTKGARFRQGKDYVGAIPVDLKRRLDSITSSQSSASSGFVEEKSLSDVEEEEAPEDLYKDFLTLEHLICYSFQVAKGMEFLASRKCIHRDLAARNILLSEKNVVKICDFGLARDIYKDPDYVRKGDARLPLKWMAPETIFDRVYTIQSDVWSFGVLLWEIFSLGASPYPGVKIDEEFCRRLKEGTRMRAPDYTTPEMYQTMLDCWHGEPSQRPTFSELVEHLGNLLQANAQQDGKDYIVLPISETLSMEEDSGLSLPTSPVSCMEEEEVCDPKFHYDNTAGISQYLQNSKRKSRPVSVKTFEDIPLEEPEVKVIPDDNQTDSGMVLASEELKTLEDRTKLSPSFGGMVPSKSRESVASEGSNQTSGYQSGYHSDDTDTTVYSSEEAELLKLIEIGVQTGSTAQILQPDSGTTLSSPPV

advanced NSCLC = conditions: combination with docetaxel; predefined patients with adenocarcinoma tumor histology; Reck et al. 2014; cited from earlier work
[7] = system: xenograft models of human solid tumors; conditions: Hilberg et al. 2008; cited from earlier work

Row | Structure (SMILES) | inhibition of VEGFRs [1] | inhibition of PDGFRs [2] | inhibition of FGFRs [3] | oral bioavailability [4] | signalling in endothelial- and smooth muscle cells and pericytes [5] | tumor vessel density (tumor vessel density) | treatment time until disease progression ([6]; 48 treatment cycles, 26 of them nintedanib alone after docetaxel was stopped) [months] | response ([6]; nintedanib 150 mg twice daily plus docetaxel 75 mg/m^2 every 3 weeks) | blockade of VEGFR2 (VEGFR2) | overall survival compared with docetaxel alone (advanced NSCLC) | tumor growth [7] | adverse events leading to discontinuation ([6]; docetaxel discontinued after 22 cycles)
1 | COC(=O)c1ccc2c(c1)NC(=O)/C2=C(\Nc1ccc(N(C)C(=O)CN2CCN(C)CC2)cc1)c1ccccc1 [nintedanib, 3-Z-[1-(4-(N-((4-methyl-piperazin-1-yl)-methylcarbonyl)-N-methyl-amino)-anilino)-1-phenyl-methylene]-6-methoxycarbonyl-2-indolinone] | highly potent | highly potent | highly potent | orally bioavailable | inhibits signalling | reduces tumor vessel density | 33 | radiographic response | sustained blockade | significantly and clinically meaningful improved overall survival | delay or arrest of tumor growth | 
2 | CC(=O)O[C@@]12CO[C@@H]1C[C@H](O)[C@@]1(C)C(=O)[C@H](O)C3=C(C)[C@@H](OC(=O)[C@H](O)[C@@H](NC(=O)OC(C)(C)C)c4ccccc4)C[C@@](O)([C@@H](OC(=O)c4ccccc4)[C@H]21)C3(C)C [docetaxel, reference compound] |  |  |  |  |  |  |  |  |  |  |  | lower extremity edema and fatigue
